Converted amounts (≈) assume the structure as drawn. The source made the active and inactive calls. No cut-off for these calls is given here.
Columns and labels:
[1] = Cytotoxicity against HEK293 cells assessed as inhibition of cell proliferation at 3 x 10^-1 umol/L after 72 hrs by MTT assay relative to control; assay type: cell-based; details: human
[2] = Cytotoxicity against HEK293 cells assessed as inhibition of cell proliferation at 10 umol/L after 72 hrs by MTT assay relative to control; assay type: cell-based; details: human
[3] = Cytotoxicity against mouse C2C12 cells assessed as inhibition of cell proliferation at 10^-1 umol/L after 72 hrs by MTT assay relative to control; assay type: cell-based
[4] = Cytotoxicity against HEK293 cells assessed as inhibition of cell proliferation at 3 x 10^2 umol/L after 72 hrs by MTT assay relative to control; assay type: cell-based; details: human
[5] = Cytotoxicity against mouse C2C12 cells assessed as inhibition of cell proliferation at 10^2 umol/L after 72 hrs by MTT assay relative to control; assay type: cell-based
[6] = Cytotoxicity against HEK293 cells assessed as inhibition of cell proliferation at 10^-2 umol/L after 72 hrs by MTT assay relative to control; assay type: cell-based; details: human
[7] = Cytotoxicity against MEF assessed as inhibition of cell proliferation at 10^2 umol/L after 72 hrs by MTT assay relative to control; assay type: cell-based; details: mouse, MEF cells
Pseudomonas aeruginosa [8] = assay: Binding affinity to Pseudomonas aeruginosa DNA by fluorescence spectroscopic analysis
HEK293 = assay: Cytotoxicity against HEK293 cells assessed as inhibition of cell proliferation after 72 hrs by MTT assay; assay type: cell-based; details: Homo sapiens, HEK293, 72 h
Saccharomyces cerevisiae = assay: Antifungal activity against Saccharomyces cerevisiae ATCC 9763 after 24 hrs by microbroth dilution method; assay type: functional; details: ATCC 9763, 24 h
Bacillus spizizenii = assay: Antibacterial activity against Bacillus subtilis ATCC 6633 after 24 hrs by microbroth dilution method; assay type: functional; details: ATCC 6633, 24 h
Pseudomonas aeruginosa [9] = assay: Binding affinity to Pseudomonas aeruginosa DNA up to 1.4 x 10^-5 mol/L by UV-vis absorption spectra analysis
[10] = Cytotoxicity against MEF assessed as inhibition of cell proliferation at 10 umol/L after 72 hrs by MTT assay relative to control; assay type: cell-based; details: mouse, MEF cells
Staphylococcus aureus [11] = assay: Antibacterial activity against Staphylococcus aureus ATCC 25923 after 24 hrs by microbroth dilution method; assay type: functional; details: ATCC 25923, 24 h
[12] = Cytotoxicity against mouse C2C12 cells assessed as inhibition of cell proliferation at 10^-2 umol/L after 72 hrs by MTT assay relative to control; assay type: cell-based
[13] = Cytotoxicity against MEF assessed as inhibition of cell proliferation at 10^-1 umol/L after 72 hrs by MTT assay relative to control; assay type: cell-based; details: mouse, MEF cells
Salmonella enterica = assay: Antibacterial activity against Salmonella enterica ATCC 14028 after 24 hrs by microbroth dilution method; assay type: functional; details: ATCC 14028, 24 h
Escherichia coli = assay: Antibacterial activity against Escherichia coli JM109 after 24 hrs by microbroth dilution method; assay type: functional; details: JM109, 24 h
[14] = Cytotoxicity against mouse C2C12 cells assessed as inhibition of cell proliferation at 30 umol/L after 72 hrs by MTT assay relative to control; assay type: cell-based
[15] = Cytotoxicity against mouse C2C12 cells assessed as inhibition of cell proliferation at 10 umol/L after 72 hrs by MTT assay relative to control; assay type: cell-based
[16] = Cytotoxicity against HEK293 cells assessed as inhibition of cell proliferation at 3 umol/L after 72 hrs by MTT assay relative to control; assay type: cell-based; details: human
C2C12 = assay: Cytotoxicity against mouse C2C12 cells assessed as inhibition of cell proliferation after 72 hrs by MTT assay; assay type: cell-based; details: C2C12, 72 h
[17] = Cytotoxicity against MEF assessed as inhibition of cell proliferation at 3 x 10^2 umol/L after 72 hrs by MTT assay relative to control; assay type: cell-based; details: mouse, MEF cells
[18] = Cytotoxicity against mouse C2C12 cells assessed as inhibition of cell proliferation at 3 x 10^2 umol/L after 72 hrs by MTT assay relative to control; assay type: cell-based
Pseudomonas aeruginosa [19] = assay: Antibacterial activity against Pseudomonas aeruginosa ATCC 27853 after 24 hrs by microbroth dilution method; assay type: functional; details: ATCC 27853, 24 h
[20] = Cytotoxicity against MEF assessed as inhibition of cell proliferation at 3 x 10^-1 umol/L after 72 hrs by MTT assay relative to control; assay type: cell-based; details: mouse, MEF cells
[21] = Cytotoxicity against mouse C2C12 cells assessed as inhibition of cell proliferation at 1 umol/L after 72 hrs by MTT assay relative to control; assay type: cell-based
[22] = Cytotoxicity against mouse C2C12 cells assessed as inhibition of cell proliferation at 3 umol/L after 72 hrs by MTT assay relative to control; assay type: cell-based
Cyberlindnera jadinii = assay: Antifungal activity against Candida utilis ATCC 9950 after 24 hrs by microbroth dilution method; assay type: functional; details: Williopsis jadinii, ATCC 9950, 24 h
Micrococcus luteus = assay: Antibacterial activity against Micrococcus luteus ATCC 4698 after 24 hrs by microbroth dilution method; assay type: functional; details: NCTC 2665, 24 h
[23] = Cytotoxicity against HEK293 cells assessed as inhibition of cell proliferation at 10^-1 umol/L after 72 hrs by MTT assay relative to control; assay type: cell-based; details: human
[24] = Cytotoxicity against mouse C2C12 cells assessed as inhibition of cell proliferation at 3 x 10^-1 umol/L after 72 hrs by MTT assay relative to control; assay type: cell-based
MEF = assay: Cytotoxicity against MEF assessed as inhibition of cell proliferation after 72 hrs by MTT assay; assay type: cell-based; details: Mus musculus
Pichia norvegensis = assay: Antifungal activity against Candida mycoderma ATCC 9888 after 24 hrs by microbroth dilution method; assay type: functional; details: ATCC 9888, 24 h
[25] = Cytotoxicity against HEK293 cells assessed as inhibition of cell proliferation at 30 umol/L after 72 hrs by MTT assay relative to control; assay type: cell-based; details: human
[26] = Cytotoxicity against MEF assessed as inhibition of cell proliferation at 1 umol/L after 72 hrs by MTT assay relative to control; assay type: cell-based; details: mouse, MEF cells
[27] = Cytotoxicity against MEF assessed as inhibition of cell proliferation at 3 x 10^-2 umol/L after 72 hrs by MTT assay relative to control; assay type: cell-based; details: mouse, MEF cells
[28] = Cytotoxicity against HEK293 cells assessed as inhibition of cell proliferation at 10^2 umol/L after 72 hrs by MTT assay relative to control; assay type: cell-based; details: human
Pseudomonas aeruginosa [29] = assay: Binding affinity to Cu2+ assessed as 2:1 compound-metal complex formation at 6 x 10^-6 mol/L by fluorescence spectroscopic analysis
Pseudomonas aeruginosa [30] = assay: Binding affinity to Pseudomonas aeruginosa DNA assessed as 1:1 compound-DNA complex formation at 6 x 10^-6 mol/L by fluorescence spectroscopic analysis in presence of Cu2+
Aspergillus flavus = assay: Antifungal activity against Aspergillus flavus ATCC 204304 after 24 hrs by microbroth dilution method; assay type: functional; details: ATCC 204304, 24 h
[31] = Cytotoxicity against MEF assessed as inhibition of cell proliferation at 30 umol/L after 72 hrs by MTT assay relative to control; assay type: cell-based; details: mouse, MEF cells
Pseudomonas aeruginosa [32] = assay: Binding affinity to Pseudomonas aeruginosa DNA assessed as Stem-Volmer quenching constant by fluorescence spectroscopic analysis in presence of KI
[33] = Cytotoxicity against mouse C2C12 cells assessed as inhibition of cell proliferation at 3 x 10^-2 umol/L after 72 hrs by MTT assay relative to control; assay type: cell-based
[34] = Cytotoxicity against MEF assessed as inhibition of cell proliferation at 10^-2 umol/L after 72 hrs by MTT assay relative to control; assay type: cell-based; details: mouse, MEF cells
[35] = Cytotoxicity against MEF assessed as inhibition of cell proliferation at 3 umol/L after 72 hrs by MTT assay relative to control; assay type: cell-based; details: mouse, MEF cells
Candida albicans = assay: Antifungal activity against Candida albicans ATCC 10231 after 24 hrs by microbroth dilution method; assay type: functional; details: ATCC 10231, 24 h
[36] = Cytotoxicity against HEK293 cells assessed as inhibition of cell proliferation at 1 umol/L after 72 hrs by MTT assay relative to control; assay type: cell-based; details: human
[37] = Ionization constant, pKa of the compound by UV spectroscopic analysis; assay type: physicochemical
Staphylococcus aureus [38] = assay: Antibacterial activity against methicillin-resistant Staphylococcus aureus N315 after 24 hrs by microbroth dilution method; assay type: functional; details: N315, 24 h
[39] = Cytotoxicity against HEK293 cells assessed as inhibition of cell proliferation at 3 x 10^-2 umol/L after 72 hrs by MTT assay relative to control; assay type: cell-based; details: human
Bacillus = assay: Antibacterial activity against Bacillus proteus ATCC 13315 after 24 hrs by microbroth dilution method; assay type: functional; details: ATCC 13315, 24 h

Cc1ncc([N+](=O)[O-])n1CC(O)CNC1CCN(c2c(F)cc3c(=O)c(C(=O)O)cn(C4CC4)c3c2Cl)C1 (configuration not stated)
inhibition at 72 h, 0.3 umol/L [1]: 4.1%
inhibition at 72 h, 10 µM [2]: 21.8%
inhibition at 72 h, 0.1 umol/L [3]: 0%
inhibition at 72 h, 300 umol/L [4]: 57.9%
inhibition at 72 h, 100 umol/L [5]: 58.2%
inhibition at 72 h, 0.01 umol/L [6]: 0.1%
inhibition at 72 h, 100 umol/L [7]: 51.7%
Activity (Pseudomonas aeruginosa [8]): inactive
IC50 (HEK293): 126 µg/mL (≈ 230 µM)
MIC (Saccharomyces cerevisiae): 8 µg/mL (≈ 14.6 µM)
MIC (Bacillus spizizenii): 0.25 µg/mL (≈ 0.455 µM)
Activity (Pseudomonas aeruginosa [9]): Active
inhibition at 72 h, 10 µM [10]: 22.7%
MIC (Staphylococcus aureus [11]): 0.5 µg/mL (≈ 0.911 µM)
inhibition at 72 h, 0.01 umol/L [12]: 0%
inhibition at 72 h, 0.1 umol/L [13]: 0%
MIC (Salmonella enterica): 0.5 µg/mL (≈ 0.911 µM)
MIC (Escherichia coli): 2 µg/mL (≈ 3.64 µM)
inhibition at 72 h, 30 µM [14]: 22.4%
inhibition at 72 h, 10 µM [15]: 10.3%
inhibition at 72 h, 3 µM [16]: 13%
IC50 (C2C12): 57 µg/mL (≈ 104 µM)
inhibition at 72 h, 300 umol/L [17]: 58.1%
inhibition at 72 h, 300 umol/L [18]: 65.5%
MIC (Pseudomonas aeruginosa [19]): 0.25 µg/mL (≈ 0.455 µM)
inhibition at 72 h, 0.3 umol/L [20]: 0%
inhibition at 72 h, 1 µM [21]: 0.7%
inhibition at 72 h, 3 µM [22]: 4%
MIC (Cyberlindnera jadinii): 2 µg/mL (≈ 3.64 µM)
MIC (Micrococcus luteus): 0.25 µg/mL (≈ 0.455 µM)
inhibition at 72 h, 0.1 umol/L [23]: 0.9%
inhibition at 72 h, 0.3 umol/L [24]: 0.3%
IC50 (MEF): 60 µg/mL (≈ 109 µM)
MIC (Pichia norvegensis): 8 µg/mL (≈ 14.6 µM)
inhibition at 72 h, 30 µM [25]: 25.7%
inhibition at 72 h, 1 µM [26]: 0%
inhibition at 72 h, 0.03 umol/L [27]: 0%
inhibition at 72 h, 100 umol/L [28]: 35.8%
Activity (Pseudomonas aeruginosa [29]): Active
Activity (Pseudomonas aeruginosa [30]): Active
MIC (Aspergillus flavus): 4 µg/mL (≈ 7.29 µM)
inhibition at 72 h, 30 µM [31]: 39.9%
KSV (Pseudomonas aeruginosa [32]): 7.02 L/mol
inhibition at 72 h, 0.03 umol/L [33]: 0%
inhibition at 72 h, 0.01 umol/L [34]: 0%
inhibition at 72 h, 3 µM [35]: 8.4%
MIC (Candida albicans): 16 µg/mL (≈ 29.1 µM)
inhibition at 72 h, 1 µM [36]: 5.3%
pKa [37]: 6.48
MIC (Staphylococcus aureus [38]): 0.25 µg/mL (≈ 0.455 µM)
inhibition at 72 h, 0.03 umol/L [39]: 1.5%
MIC (Bacillus): 0.25 µg/mL (≈ 0.455 µM)
